Tests used:
recombinant human MER = molecular target: T1, recombinant human MER (Homo sapiens, UniProt Q12866); assay: Biochemical potency, HTRF KinEASE-TK kinase assay; settings: 1 nM MER, 700 μM ATP
T1 construct: purchased Invitrogen
T1 sequence (Q12866 21-999): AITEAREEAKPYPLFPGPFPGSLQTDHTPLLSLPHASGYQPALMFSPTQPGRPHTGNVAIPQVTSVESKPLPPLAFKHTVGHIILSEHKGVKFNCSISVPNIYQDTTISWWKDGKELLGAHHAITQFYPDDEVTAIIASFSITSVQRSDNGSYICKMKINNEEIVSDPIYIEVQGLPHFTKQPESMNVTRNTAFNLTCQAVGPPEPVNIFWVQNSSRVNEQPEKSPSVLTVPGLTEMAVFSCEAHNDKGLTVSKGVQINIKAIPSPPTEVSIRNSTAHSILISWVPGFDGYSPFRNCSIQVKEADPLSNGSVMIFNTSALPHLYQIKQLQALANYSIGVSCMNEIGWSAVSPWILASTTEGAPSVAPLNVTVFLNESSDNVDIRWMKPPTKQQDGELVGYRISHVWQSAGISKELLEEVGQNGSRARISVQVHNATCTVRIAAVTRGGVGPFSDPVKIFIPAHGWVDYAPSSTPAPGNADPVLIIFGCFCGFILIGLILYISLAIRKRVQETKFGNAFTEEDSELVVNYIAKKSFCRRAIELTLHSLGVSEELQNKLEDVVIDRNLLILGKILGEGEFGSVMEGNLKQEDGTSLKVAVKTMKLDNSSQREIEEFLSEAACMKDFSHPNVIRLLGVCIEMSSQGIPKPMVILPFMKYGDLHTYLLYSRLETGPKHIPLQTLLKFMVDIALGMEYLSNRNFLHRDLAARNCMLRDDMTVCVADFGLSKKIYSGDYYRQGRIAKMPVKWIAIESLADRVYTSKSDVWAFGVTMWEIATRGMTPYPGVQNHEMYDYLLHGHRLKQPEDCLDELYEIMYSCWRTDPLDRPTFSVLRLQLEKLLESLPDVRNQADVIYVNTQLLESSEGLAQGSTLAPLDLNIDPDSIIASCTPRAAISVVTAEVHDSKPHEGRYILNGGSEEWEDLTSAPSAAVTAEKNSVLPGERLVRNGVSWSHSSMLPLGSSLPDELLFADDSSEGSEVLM
Summary of the method: (§1)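 Phosphorylation of a biotinylated tyrosine-kinase peptide (800 nM) by AXL (5 nM) or TYRO3/MER (1 nM) is measured at 700 µM ATP after 2 h at room temperature, following 1 h enzyme–compound preincubation. Signal is the time-resolved FRET ratio, converted to percent activity.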

recombinant human TYRO3 = molecular target: T2, recombinant human TYRO3 (Homo sapiens, UniProt Q06418); assay: Biochemical potency, HTRF KinEASE-TK kinase assay; settings: 1 nM TYRO3, 700 μM ATP
T2 construct: purchased Invitrogen
T2 sequence (Q06418 41-890): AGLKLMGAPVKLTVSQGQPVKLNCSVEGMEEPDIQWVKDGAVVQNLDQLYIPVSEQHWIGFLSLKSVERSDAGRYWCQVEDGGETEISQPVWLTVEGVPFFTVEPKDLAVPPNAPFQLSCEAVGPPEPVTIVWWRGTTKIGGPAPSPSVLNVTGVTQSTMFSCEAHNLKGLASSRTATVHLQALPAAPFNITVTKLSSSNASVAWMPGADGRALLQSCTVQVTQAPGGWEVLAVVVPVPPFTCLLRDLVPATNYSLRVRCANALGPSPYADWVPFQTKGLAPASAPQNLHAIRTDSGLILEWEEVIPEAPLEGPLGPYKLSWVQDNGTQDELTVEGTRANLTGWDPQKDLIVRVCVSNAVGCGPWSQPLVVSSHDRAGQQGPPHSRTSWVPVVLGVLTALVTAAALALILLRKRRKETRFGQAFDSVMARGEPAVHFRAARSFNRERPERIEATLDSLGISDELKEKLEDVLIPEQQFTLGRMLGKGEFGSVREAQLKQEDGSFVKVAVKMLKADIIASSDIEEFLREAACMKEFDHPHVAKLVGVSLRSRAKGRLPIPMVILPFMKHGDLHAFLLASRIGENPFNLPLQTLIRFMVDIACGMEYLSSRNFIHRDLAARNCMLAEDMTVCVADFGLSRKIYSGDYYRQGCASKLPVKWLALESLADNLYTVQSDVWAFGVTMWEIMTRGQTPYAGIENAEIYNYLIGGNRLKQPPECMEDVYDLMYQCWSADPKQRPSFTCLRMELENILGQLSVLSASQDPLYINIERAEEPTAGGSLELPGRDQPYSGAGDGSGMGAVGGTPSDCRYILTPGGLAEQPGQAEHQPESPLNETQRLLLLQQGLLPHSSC
Summary of the method: as §1

IC50 (recombinant human MER)	IC50 (recombinant human TYRO3)	SMILES
< 0.1 µM	< 0.1 µM	Cc1cccnc1-c1ccc(-c2c[nH]c3ncc(-c4ccc5c(c4)CC[C@@H](N4C6COCC4C6)CC5)cc23)cc1 [Example 1, 6-[(7S)-2-{3-[4-(3-Methylpyridin-2-yl)phenyl]-1H-pyrrolo[2,3-b]pyridin-5-yl}-6,7,8,9-tetrahydro-5H-benzo[7]annulen-7-yl]-3-oxa-6-azabicyclo[3.1.1]heptane]
< 0.1 µM	< 0.1 µM	Cc1ccnnc1-c1ccc(-c2c[nH]c3ncc(-c4ccc5c(c4)CC[C@@H](N4C6COCC4C6)CC5)cc23)cc1 [Example 49, 6-[(7S)-2-{3-[4-(4-Methylpyridazin-3-yl)phenyl]-1H-pyrrolo[2,3-b]pyridin-5-yl}-6,7,8,9-tetrahydro-5H-benzo[7]annulen-7-yl]-3-oxa-6-azabicyclo[3.1.1]heptane]
< 0.1 µM	< 0.1 µM	COCCOc1cccnc1-c1ccc(-c2c[nH]c3ncc(-c4ccc5c(c4)CC[C@@H](N4C6COCC4C6)CC5)cc23)cc1 [Example 3, 6-[(7S)-2-(3-{4-[3-(2-Methoxyethoxy)pyridin-2-yl]phenyl}-1H-pyrrolo[2,3-b]pyridin-5-yl)-6,7,8,9-tetrahydro-5H-benzo[7]annulen-7-yl]-3-oxa-6-azabicyclo[3.1.1]heptane]
> 1 µM	0.1 to 1 µM	Cc1nccnc1-c1ccc(-c2c[nH]c3ncc(-c4ccc5c(c4)CC[C@@H](N4C6COCC4C6)CC5)cc23)nc1 [Example 54, 6-[(7S)-2-{3-[5-(3-Methylpyrazin-2-yl)pyridin-2-yl]-1H-pyrrolo[2,3-b]pyridin-5-yl}-6,7,8,9-tetrahydro-5H-benzo[7]annulen-7-yl]-3-oxa-6-azabicyclo[3.1.1]heptane]
> 1 µM	> 1 µM	c1cncc(-c2ccc(-c3n[nH]c4ncc(-c5ccc6c(c5)CC[C@@H](N5C7COCC5C7)CC6)cc34)cc2)c1 [Example 157, 6-[(7S)-2-{3-[4-(Pyridin-3-yl)phenyl]-2H-pyrazolo[3,4-b]pyridin-5-yl}-6,7,8,9-tetrahydro-5H-benzo[7]annulen-7-yl]-3-oxa-6-azabicyclo[3.1.1]heptane]
0.1 to 1 µM	0.1 to 1 µM	CS(=O)(=O)c1ccccc1-c1ccc(-c2c[nH]c3ncc(-c4ccc5c(c4)CC[C@@H](N4C6COCC4C6)CC5)cc23)cc1 [Example 93, 6-[(7S)-2-(3-{2′-Methanesulfonyl-[1,1′-biphenyl]-4-yl}-1H-pyrrolo[2,3-b]pyridin-5-yl)-6,7,8,9-tetrahydro-5H-benzo[7]annulen-7-yl]-3-oxa-6-azabicyclo[3.1.1]heptane]
< 0.1 µM	< 0.1 µM	Cc1ccnnc1-c1ccc(-c2c[nH]c3ncc(-c4ccc5c(c4)CC[C@@](C)(N4CCC[C@H]4C)CC5)cc23)cc1 [Example 51, 4-methyl-3-(4-{5-[(7S)-7-Methyl-7-[(2R)-2-methylpyrrolidin-1-yl]-6,7,8,9-tetrahydro-5H-benzo[7]annulen-2-yl]-1H-pyrrolo[2,3-b]pyridin-3-yl}phenyl)pyridazine]
0.1 to 1 µM	0.1 to 1 µM	N#Cc1cccnc1-c1ccc(-c2c[nH]c3ncc(-c4ccc5c(c4)CC[C@@H](N4C6COCC4C6)CC5)cc23)cc1 [Example 46, 2-(4-{5-[(7S)-7-{3-Oxa-6-azabicyclo[3.1.1]heptan-6-yl}-6,7,8,9-tetrahydro-5H-benzo[7]annulen-2-yl]-1H-pyrrolo[2,3-b]pyridin-3-yl}phenyl)pyridine-3-carbonitrile]
